From ChEMBL document CHEMBL4346708, “Synthetic approaches and pharmaceutical applications of chloro-containing molecules for drug discovery: A critical review” (Eur J Med Chem, 2019)
One block for each compound: values may come before it.

What was measured:
Alpha glucosidase = Alpha glucosidase (Homo sapiens, UniProt O43451+P10253+P14410+Q2M2H8); test: Inhibition of alpha-glucosidase (unknown origin) using p-nitrophenyl-a-d-glucopyranoside as substrate preincubated for 5 mins followed by substrate addition measured after 5 mins by spectrophotometric analysis; type: protein assay
[1] = target: Amyloid-beta precursor protein (Homo sapiens, UniProt P05067); test: Inhibition of amyloid beta (1 to 42) (unknown origin) aggregation
[2] = Antioxidant activity assessed as DPPH radical scavenging activity after 30 mins; type: functional
[3] = Inhibition of porcine pancreatic alpha-amlyase after 10 mins; parameters: species or system Sus scrofa
Erythrocyte = test: Antiinflammatory activity in human erythrocytes assessed as inhibition of hypotonic solution-induced haemolysis after 10 mins by spectrophotometric analysis; type: functional, cell-based
[4] = Anti glycation activity assessed as inhibition of BSA glycation after 7 days in presence of glucose by spectrofluorimetry assay; type: functional

Chain of Amyloid-beta precursor protein (P05067 whole entry): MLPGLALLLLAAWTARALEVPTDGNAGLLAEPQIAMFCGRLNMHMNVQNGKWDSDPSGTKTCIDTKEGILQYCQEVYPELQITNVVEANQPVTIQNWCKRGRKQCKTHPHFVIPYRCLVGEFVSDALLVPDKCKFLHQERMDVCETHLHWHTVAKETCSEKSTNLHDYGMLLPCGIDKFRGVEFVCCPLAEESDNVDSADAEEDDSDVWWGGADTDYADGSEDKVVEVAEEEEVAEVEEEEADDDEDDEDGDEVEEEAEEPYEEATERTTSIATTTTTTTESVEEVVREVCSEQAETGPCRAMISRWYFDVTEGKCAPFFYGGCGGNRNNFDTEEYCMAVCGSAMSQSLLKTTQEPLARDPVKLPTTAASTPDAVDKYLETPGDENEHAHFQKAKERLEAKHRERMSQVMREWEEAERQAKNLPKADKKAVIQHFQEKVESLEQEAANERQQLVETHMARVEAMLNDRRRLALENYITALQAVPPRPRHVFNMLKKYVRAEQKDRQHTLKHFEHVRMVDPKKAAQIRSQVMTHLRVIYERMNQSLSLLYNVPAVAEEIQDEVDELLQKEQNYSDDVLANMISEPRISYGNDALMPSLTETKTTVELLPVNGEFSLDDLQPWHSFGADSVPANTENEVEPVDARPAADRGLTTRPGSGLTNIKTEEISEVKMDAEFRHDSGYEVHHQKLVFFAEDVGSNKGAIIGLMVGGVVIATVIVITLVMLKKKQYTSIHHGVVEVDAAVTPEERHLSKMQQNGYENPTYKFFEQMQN

SMILES: Clc1ccc(-c2nnc(/N=C/c3ccc(Cl)cc3Cl)s2)cc1
IC50 (Alpha glucosidase): 4.7 µM

SMILES: O=c1c2c(F)cccc2[se]n1-c1cc(Cl)c(O)c2ncccc12
IC50 [1]: 9.6 µM

SMILES: Oc1ccc(O)c(-c2nc3ncc(Cl)cc3[nH]2)c1
IC50 [2]: 72.5 µM

SMILES: CCCc1nc(C(C)(C)O)c(C(=O)N/N=C/c2ccc(Cl)cc2Cl)[nH]1
IC50 (Erythrocyte): 46 µM

More lines, now with the values ahead:

IC50 [3]: 2.1 µM
SMILES: O=C(NNC(=S)Nc1ccccc1Cl)c1cc2cc(Cl)ccc2[nH]1

IC50 [4]: 240 µM
SMILES: Oc1ccc(-c2nc3ncc(Cl)cc3[nH]2)c(O)c1

IC50 [3]: 2.03 µM
SMILES: O=C(NNC(=S)Nc1ccc(F)cc1)c1cc2cc(Cl)cnc2[nH]1
